Experiments:
TYK2 = target: T1, TYK2 (Homo sapiens, UniProt P29597); experiment: Kinobeads assay, TYK2 (competition binding in mixed Molt4/Ramos cell lysate, dot blot detection); conditions: Kinobeads assay, Molt4/Ramos lysate; read-out: TYK2 Band (Kinobeads assay potency, IC50)
T1 construct: endogenous in cells; host or cells: Molt4 (ATCC CRL-1582) and Ramos (ATCC CRL-1596), mixed lysate 1:2
Method: (§1) The compounds of the present invention as described in the previous examples were tested in a Kinobeads™ assay as described for ZAP-70 (WO-A 2007/137867). Briefly, test compounds (at various concentrations) and the affinity matrix with the immobilized aminopyrido-pyrimidine ligand 24 were added to cell lysate aliquots and allowed to bind to the proteins in 10 the lysate sample. After the incubation time the beads with captured proteins were separated from the lysate. Bound proteins were then eluted and the presence of TYK2 and JAK2 was detected and quantified using specific antibodies in a dot blot procedure and the Odyssey infrared detection system. Dose response curves for individual kinases were generated and IC50 values calculated. Kinobeads™ assays have been previously described (WO-A 2007/137867; WO-A 2006/134056).
(§2) The affinity matrix was washed two times with 15 mL of 1×DP buffer containing 0.2% NP40 (IGEPAL® CA-630, Sigma, #13021) and then resuspended in 1×DP buffer containing 0.2% NP40 (3% beads slurry). 5×DP buffer: 250 mM Tris-HCl pH 7.4, 25% Glycerol, 7.5 mM MgCl2, 750 mM NaCl, 5 mM Na3VO4; filter the 5×DP buffer through a 0.22 μm filter and store in aliquots at −80° C. The 5×DP buffer is diluted with H2O to 1×DP buffer containing 1 mM DTT and 25 mM NaF.
(§3) Stock solutions of test compounds were prepared in DMSO. In a 96 well plate 30 μL solution of diluted test compounds at 5 mM in DMSO were prepared. Starting with this solution a 1:3 dilution series (9 steps) was prepared. For control experiments (no test compound) a buffer containing 2% DMSO was used.
(§4) Molt4 cells (ATCC catalogue number CRL-1582) and Ramos cells (ATCC catalogue number CRL-1596) were grown in 1 L Spinner flasks (Integra Biosciences, #182101) in suspension in RPMI 1640 medium (Invitrogen, #21875-034) supplemented with 10% Fetal Bovine Serum (Invitrogen) at a density between 0.15×10^6 and 1.2×10^6 cells/mL. Cells were harvested by centrifugation, washed once with 1×PBS buffer (Invitrogen, #14190-094) and cell pellets were frozen in liquid nitrogen and subsequently stored at −80° C. Cells were homogenized in a Potter S homogenizer in lysis buffer: 50 mM Tris-HCl, 0.8% NP40, 5% glycerol, 150 mM NaCl, 1.5 mM MgCl2, 25 mM NaF, 1 mM sodium vanadate, 1 mM DTT, pH 7.5. One complete EDTA-free tablet (protease inhibitor cocktail, Roche Diagnostics, 1873580) per 25 mL buffer was added. The material was dounced 10 times using a mechanized POTTER S, transferred to 50 mL falcon tubes, incubated for 30 minutes on ice and spun down for 10 minutes at 20,000 g at 4° C. (10,000 rpm in Sorvall SLA600, precooled). The supernatant was transferred to an ultracentrifuge (UZ)-polycarbonate tube (Beckmann, 355654) and spun for 1 hour at 100.000 g at 4° C. (33.500 rpm in Ti50.2, precooled). The supernatant was transferred again to a fresh 50 mL falcon tube, the protein concentration was determined by a Bradford assay (BioRad) and samples containing 50 mg of protein per aliquot were prepared. The samples were immediately used for experiments or frozen in liquid nitrogen and stored frozen at −80° C.
(§5) Cell lysate (approximately 50 mg protein per plate) was thawed in a water bath at room temperature and then stored on ice. To the thawed cell lysate 1×DP 0.8% NP40 buffer containing protease inhibitors (1 tablet for 25 mL buffer; EDTA-free protease inhibitor cocktail; Roche Diagnostics 1873580) was added in order to reach a final protein concentration of 10 mg/mL total protein. The diluted cell lysate was stored on ice. Mixed Molt4/Ramos lysate was prepared by combining one volume of Molt4 lysate and two volumes of Ramos lysate (ratio 1:2).
(§6) To a 96 well filter plate (Multiscreen HTS, BV Filter Plates, Millipore #MSBVN1250) were added per well: 100 μL affinity matrix (3% beads slurry), 3 μL of compound solution, and 50 μL of diluted lysate. Plates were sealed and incubated for 3 hours in a cold room on a plate shaker (Heidolph tiramax 1000) at 750 rpm. […]

JAK2 = target: T2, JAK2 (Homo sapiens, UniProt O60674); experiment: Kinobeads assay, JAK2 (competition binding in mixed Molt4/Ramos cell lysate, dot blot detection); conditions: read-out: JAK2 Band (Kinobeads assay potency, IC50)
T2 construct: endogenous in cells; host or cells: Molt4 (ATCC CRL-1582) and Ramos (ATCC CRL-1596), mixed lysate 1:2
Method: as §1, §2, §3, §4, §5, §6

T2 sequence (O60674 whole entry): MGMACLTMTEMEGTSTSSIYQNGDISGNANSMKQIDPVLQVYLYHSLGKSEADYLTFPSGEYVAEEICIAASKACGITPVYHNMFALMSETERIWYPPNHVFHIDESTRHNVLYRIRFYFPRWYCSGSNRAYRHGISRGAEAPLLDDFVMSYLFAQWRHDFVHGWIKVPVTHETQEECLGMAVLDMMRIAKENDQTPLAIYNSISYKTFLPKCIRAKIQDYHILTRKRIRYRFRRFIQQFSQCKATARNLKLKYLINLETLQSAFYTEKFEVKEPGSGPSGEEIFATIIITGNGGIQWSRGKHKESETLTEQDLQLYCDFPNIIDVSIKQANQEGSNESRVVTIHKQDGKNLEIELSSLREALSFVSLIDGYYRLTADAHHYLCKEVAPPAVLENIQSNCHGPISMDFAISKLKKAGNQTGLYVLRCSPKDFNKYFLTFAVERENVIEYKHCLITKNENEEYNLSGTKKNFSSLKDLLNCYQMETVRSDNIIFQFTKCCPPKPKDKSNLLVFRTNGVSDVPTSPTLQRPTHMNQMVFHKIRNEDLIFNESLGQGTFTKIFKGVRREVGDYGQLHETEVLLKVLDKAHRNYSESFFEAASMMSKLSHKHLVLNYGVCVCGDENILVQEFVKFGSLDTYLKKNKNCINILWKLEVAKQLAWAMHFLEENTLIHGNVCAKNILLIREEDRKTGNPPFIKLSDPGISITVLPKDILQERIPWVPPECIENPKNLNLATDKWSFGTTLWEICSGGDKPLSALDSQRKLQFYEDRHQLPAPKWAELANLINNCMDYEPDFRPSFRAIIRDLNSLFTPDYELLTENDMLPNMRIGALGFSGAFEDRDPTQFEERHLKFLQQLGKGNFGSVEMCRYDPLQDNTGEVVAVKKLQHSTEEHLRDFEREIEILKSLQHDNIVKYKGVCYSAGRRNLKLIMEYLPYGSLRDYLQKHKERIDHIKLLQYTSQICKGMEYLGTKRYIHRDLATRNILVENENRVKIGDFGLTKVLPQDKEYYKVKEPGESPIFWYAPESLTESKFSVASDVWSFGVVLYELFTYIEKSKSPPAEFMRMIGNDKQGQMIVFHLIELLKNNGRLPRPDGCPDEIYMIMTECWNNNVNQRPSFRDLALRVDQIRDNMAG
T1 sequence (P29597 whole entry): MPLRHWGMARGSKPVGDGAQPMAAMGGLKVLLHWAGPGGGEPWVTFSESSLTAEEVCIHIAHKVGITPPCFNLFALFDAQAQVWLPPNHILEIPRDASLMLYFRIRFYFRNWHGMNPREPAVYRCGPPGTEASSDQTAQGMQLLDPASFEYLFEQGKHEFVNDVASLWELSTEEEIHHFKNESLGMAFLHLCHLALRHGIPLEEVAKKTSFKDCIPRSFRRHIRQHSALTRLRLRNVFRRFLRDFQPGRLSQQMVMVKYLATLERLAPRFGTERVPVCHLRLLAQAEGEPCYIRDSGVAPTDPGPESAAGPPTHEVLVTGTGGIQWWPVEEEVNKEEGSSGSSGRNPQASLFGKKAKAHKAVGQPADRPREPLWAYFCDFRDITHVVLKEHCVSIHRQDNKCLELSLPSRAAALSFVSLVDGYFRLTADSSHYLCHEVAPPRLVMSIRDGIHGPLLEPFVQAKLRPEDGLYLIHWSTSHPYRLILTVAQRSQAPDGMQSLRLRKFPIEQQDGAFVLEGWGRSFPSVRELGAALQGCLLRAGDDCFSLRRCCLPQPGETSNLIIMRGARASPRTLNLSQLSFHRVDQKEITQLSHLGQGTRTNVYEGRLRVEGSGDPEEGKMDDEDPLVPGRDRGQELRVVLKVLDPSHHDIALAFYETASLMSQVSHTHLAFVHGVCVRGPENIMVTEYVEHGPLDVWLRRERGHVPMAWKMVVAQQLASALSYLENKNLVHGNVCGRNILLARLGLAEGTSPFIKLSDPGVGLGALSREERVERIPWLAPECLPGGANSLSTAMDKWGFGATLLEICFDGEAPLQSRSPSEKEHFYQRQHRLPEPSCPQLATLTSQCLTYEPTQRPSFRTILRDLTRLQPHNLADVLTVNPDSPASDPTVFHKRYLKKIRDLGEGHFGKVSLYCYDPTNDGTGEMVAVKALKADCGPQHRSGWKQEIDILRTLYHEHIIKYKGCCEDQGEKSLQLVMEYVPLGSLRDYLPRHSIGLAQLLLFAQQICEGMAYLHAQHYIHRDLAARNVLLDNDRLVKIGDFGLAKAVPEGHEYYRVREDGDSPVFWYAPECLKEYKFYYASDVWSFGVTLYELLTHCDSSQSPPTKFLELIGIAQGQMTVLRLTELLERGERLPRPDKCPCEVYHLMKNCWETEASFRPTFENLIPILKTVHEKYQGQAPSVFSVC

Row | IC50 (TYK2) | IC50 (JAK2) | SMILES
1 | ≤ 10 nM | 1000 to 10000 nM | CC(C)N(C)C(=O)Cn1cc(Nc2ncc(F)c(NCc3c(F)cc(F)cc3F)n2)cn1 [Example I-59]
2 | ≤ 10 nM | 1000 to 10000 nM | O=C(Cn1cc(Nc2ncc(F)c(NCc3cccc(OC(F)F)c3)n2)cn1)N1CCOCC1 [Example I-44]
3 | 100 to 1000 nM | 1000 to 10000 nM | OCCn1cc(Nc2ncc(F)c(NCc3cccc(F)c3F)n2)cn1 [Example I-170]
4 | 10 to 100 nM | 100 to 1000 nM | N#Cc1cccc(CNc2nc(Nc3cnn(CCO)c3)ncc2Cl)c1 [Example I-182]
5 | ≤ 10 nM | 1000 to 10000 nM | O=C(Cn1cc(Nc2nccc(NCc3c(F)cccc3F)n2)cn1)N1CCOCC1 [Example I-28]
6 | 100 to 1000 nM | 100 to 1000 nM | Cn1cc(Nc2ncc(Cl)c(NCc3cccc(F)c3F)n2)cn1 [Example I-179]
7 | 10 to 100 nM | > 10000 nM | COc1ccc(F)c(CNc2nc(Nc3cnn(CC(=O)OC(C)C)c3)ncc2F)c1F [Example I-47]
8 | 10 to 100 nM | 100 to 1000 nM | OCCn1cc(Nc2ncc(Cl)c(NCc3ccccc3)n2)cn1 [Example I-192]
9 | 10 to 100 nM | 1000 to 10000 nM | Cc1cnc(Nc2cnn(C)c2)nc1NCc1c(F)cc(F)cc1F [Example I-301]
10 | 10 to 100 nM | 1000 to 10000 nM | Cn1cc(Nc2nccc(NCc3c(F)ccc(C#N)c3F)n2)cn1 [Example I-135]
11 | 10 to 100 nM | 100 to 1000 nM | OCCn1cc(Nc2ncc(Cl)c(NCc3c(Cl)cccc3Cl)n2)cn1 [Example I-323]
12 | 100 to 1000 nM | 1000 to 10000 nM | Cc1cnc(Nc2cnn(CCO)c2)nc1NCc1ccccc1S(C)(=O)=O [Example I-433]
13 | 100 to 1000 nM | 100 to 1000 nM | CC(O)Cn1cc(Nc2ncc(Cl)c(NCc3ccccc3F)n2)cn1 (centres unmarked) [Example I-213]
14 | ≤ 10 nM | 100 to 1000 nM | O=C(Cn1cc(Nc2ncc(Cl)c(NCc3c(F)ccc(F)c3F)n2)cn1)NC1CC1 [Example I-335]
15 | ≤ 10 nM | 100 to 1000 nM | COc1ccc(Cl)c(CNc2nc(Nc3cnn(CC(=O)NC(C)C)c3)ncc2F)c1F [Example I-84]
16 | 100 to 1000 nM | 100 to 1000 nM | Cn1cc(Nc2ncc(Cl)c(NCc3ccccc3F)n2)cn1 [Example I-173]
17 | 10 to 100 nM | 100 to 1000 nM | OCCn1cc(Nc2ncc(F)c(NCc3cccc(F)c3)n2)cn1 [Example I-210]
18 | 1000 to 10000 nM | 1000 to 10000 nM | Clc1cnc(Nc2cnn(Cc3ncco3)c2)nc1NCc1ccccc1 [Example I-249]
19 | 10 to 100 nM | 1000 to 10000 nM | COc1ccc(S(C)(=O)=O)cc1CNc1nc(Nc2cnn(C)c2)ncc1F [Example I-446]
20 | 10 to 100 nM | 1000 to 10000 nM | CNC(=O)Cn1cc(Nc2ncc(Cl)c(NCc3c(Cl)cccc3Cl)n2)cn1 [Example I-325]
21 | 10 to 100 nM | 1000 to 10000 nM | C[C@@H](CO)NC(=O)Cn1cc(Nc2nccc(NCc3c(F)cccc3F)n2)cn1 [Example I-151]
22 | 100 to 1000 nM | 1000 to 10000 nM | COc1ccc(S(C)(=O)=O)cc1CNc1nc(Nc2cnn(CC(F)F)c2)ncc1F [Example I-480]
23 | 100 to 1000 nM | 1000 to 10000 nM | O=C(Cn1cc(Nc2ncc(Cl)c(NCc3ccccc3)n2)cn1)N1CCC2(CC1)COC2 [Example I-239]

Continued, molecule first:

Row | SMILES | IC50 (TYK2) | IC50 (JAK2)
24 | CCOC(=O)Cn1cc(Nc2ncc(F)c(NCc3c(F)cc(F)cc3F)n2)cn1 [Example I-54, Ethyl 2-(4-((5-fluoro-4-((2,4,6-trifluorobenzyl)amino)pyrimidin-2-yl)amino)-1H-pyrazol-1-yl)acetate] | 10 to 100 nM | 1000 to 10000 nM
25 | OCCn1cc(Nc2ncc(Cl)c(NCc3cc(Br)ccc3F)n2)cn1 [Example I-164] | 10 to 100 nM | 100 to 1000 nM
26 | CNC(=O)Cn1cc(Nc2ncc(Cl)c(NCc3cccc(C#N)c3)n2)cn1 [Example I-230] | 10 to 100 nM | 1000 to 10000 nM
27 | Cc1cnc(Nc2cnn(CC(F)(F)F)c2)nc1NCc1cc(F)cc(F)c1 [Example I-350] | 1000 to 10000 nM | 1000 to 10000 nM
28 | Cc1ccc(F)c(CNc2ccnc(Nc3cnn(CC(=O)N[C@@H](C)CO)c3)n2)c1F [Example I-130] | 10 to 100 nM | 1000 to 10000 nM
29 | Cc1cnc(Nc2cnn(CCO)c2)nc1NCc1ccc(S(N)(=O)=O)cc1 [Example I-8] | 10 to 100 nM | 1000 to 10000 nM
30 | CNC(=O)Cn1cc(Nc2ncc(Cl)c(NCc3cc(F)ccc3S(C)(=O)=O)n2)cn1 [Example I-438] | 10 to 100 nM | 100 to 1000 nM
31 | COc1ccc(Cl)c(CNc2nc(Nc3cnn(CC(=O)N4CCOCC4)c3)ncc2F)c1F [Example I-81] | ≤ 10 nM | 100 to 1000 nM
32 | COc1ccc(F)c(CNc2nc(Nc3cnn(C)c3)ncc2F)c1F [Example I-383] | 10 to 100 nM | 1000 to 10000 nM
33 | CNC(=O)Cn1cc(Nc2ncc(Cl)c(NCc3cc(Br)cc(F)c3F)n2)cn1 [Example I-262] | 100 to 1000 nM | 100 to 1000 nM
34 | O=C(Cn1cc(Nc2nccc(NCc3c(F)cc(F)cc3F)n2)cn1)NCC1COCCO1 (centres unmarked) [Example I-432] | 10 to 100 nM | 1000 to 10000 nM
35 | CC(C)(C)NC(=O)Cn1cc(Nc2ncc(F)c(NCc3c(F)cc(F)cc3F)n2)cn1 [Example I-429] | 10 to 100 nM | 1000 to 10000 nM
36 | CN(C)C(=O)Cn1cc(Nc2ncc(F)c(NCc3c(F)cccc3F)n2)cn1 [Example I-382] | 10 to 100 nM | 1000 to 10000 nM
37 | CS(=O)(=O)NCc1cccc(CNc2nc(Nc3cnn(CCO)c3)ncc2Cl)c1 [Example I-417] | 100 to 1000 nM | 100 to 1000 nM
38 | COc1c(F)cc(F)cc1CNc1nc(Nc2cnn(C)c2)ncc1Cl [Example I-276] | 100 to 1000 nM | 10 to 100 nM
39 | Cc1cnc(Nc2cnn(CC(=O)O)c2)nc1NCc1c(F)cc(F)cc1F [Example I-306] | 10 to 100 nM | 1000 to 10000 nM
40 | CN(C)C(=O)Cn1cc(Nc2ncc(Cl)c(NCc3cccc(OCC#N)c3)n2)cn1 [Example I-365] | 10 to 100 nM | 1000 to 10000 nM
41 | CNC(=O)Cn1cc(Nc2ncc(Cl)c(NCc3cccc(CS(C)(=O)=O)c3)n2)cn1 [Example I-445] | 100 to 1000 nM | 1000 to 10000 nM
42 | OCCn1cc(Nc2ncc(Cl)c(NCc3ccc(C(F)(F)F)cc3F)n2)cn1 [Example I-245] | 1000 to 10000 nM | 10 to 100 nM
43 | C[C@@H](O)Cn1cc(Nc2ncc(Cl)c(NCc3ccccc3F)n2)cn1 [Example I-256] | 100 to 1000 nM | 1000 to 10000 nM
44 | NS(=O)(=O)c1ccc(CNc2nc(Nc3cnn(CC(=O)NC4CC4)c3)ncc2Cl)cc1 [Example I-10] | 10 to 100 nM | > 10000 nM
45 | Cc1cnc(Nc2cnn(CC(F)(F)F)c2)nc1NCc1cc(F)ccc1F [Example I-353] | 100 to 1000 nM | 1000 to 10000 nM
46 | O=C(O)Cn1cc(Nc2ncc(F)c(NCc3c(F)cc(F)cc3F)n2)cn1 [Example I-307] | 10 to 100 nM | > 10000 nM
47 | O=C(Cn1cc(Nc2nccc(NCc3c(F)cc(F)cc3F)n2)cn1)NCCO [Example I-89] | 10 to 100 nM | 1000 to 10000 nM
48 | C[C@H](CO)NC(=O)Cn1cc(Nc2nccc(NCc3c(F)cccc3Cl)n2)cn1 [Example I-106] | ≤ 10 nM | 1000 to 10000 nM
49 | Cc1cnc(Nc2cnn(CC(=O)NC3CC3)c2)nc1NCc1cccc(F)c1F [Example I-341] | 10 to 100 nM | 1000 to 10000 nM

Reference: patent US9296725B2, “Heterocyclyl pyrimidine analogues as TYK2 inhibitors” (Cellzome Limited, priority 2012, dated 2016)
